{"source": "a melting point compilation (Tetko et al.; mined from patent text by program, amines drawn as free bases though some values may be those of a salt)"}
{"units": {"melting point": "°C"}}
{"smiles": "COC(=O)C(O)CCNc1ncc(N)cc1N", "note": "(stereo unspecified)", "melting point": "229 to 230"}
{"smiles": "CN1CCC(=Cc2cc(C(C)(C)C)c(O)c(C(C)(C)C)c2)C1=O", "melting point": 185}
{"smiles": "COC(=O)CCCCCSc1ccc(-c2ccc(Cl)cc2)cc1", "melting point": "87 to 88"}
{"smiles": "CCN(CC)C(=O)n1ccc(S(=O)c2ccccc2Cl)n1", "note": "(stereo unspecified)", "melting point": "54 to 56"}
{"smiles": "N#CC12CCN(CC1)CC2Cc1ccccc1", "note": "(stereo unspecified)", "melting point": "82.5 to 84"}
{"smiles": "CC(=O)NCc1nc(-c2csc(N=C(N)N)n2)cs1", "melting point": "255 to 256"}
{"smiles": "O=C(Nc1ccccc1)C1=Cc2ccccc2S1(=O)=O", "melting point": "> 220"}
{"smiles": "Cc1cc(S(=O)(=O)c2ccc(O)cc2)ccc1C1CCN(C)C1", "note": "(stereo unspecified)", "melting point": "186 to 188"}
{"smiles": "CC(=O)NC[C@H]1CN(c2ccc(-n3nccc3-c3ccc(Br)cn3)c(F)c2)C(=O)O1", "melting point": "92.7 to 95.4"}
{"smiles": "O=C(NC1CCN(CCCc2ccccc2)C1)C12CC3CC(CC(C3)C1)C2", "note": "(stereo unspecified)", "melting point": "118 to 120"}
{"smiles": "Cc1cc(Cl)ccc1Br", "melting point": "91 to 95"}
{"smiles": "CCSc1ccc2c(c1)CCN2C(=O)Nc1cccnc1", "melting point": "150 to 151"}
{"smiles": "C=Cc1c2c(c(C)c(C)c1N1CCN(c3ccc(OC)cc3)CC1)OC(C)(C)C2=O", "melting point": "147 to 148"}
{"smiles": "CCCc1ccc2ncc(C(=O)NCc3ccc(Cl)cc3)c(O)c2c1", "melting point": "225 to 227"}
{"smiles": "O=[N+]([O-])c1cnccc1-c1ccc(Cl)cc1", "melting point": "74 to 76"}
{"smiles": "Nc1nc(Oc2ccc(O)cc2)nc2nc(-c3ccco3)nn12", "melting point": "292 to 294"}
{"smiles": "Cc1cc2c(cc1C)C(=O)c1c(N)cccc1C2=O", "melting point": 222}
{"smiles": "C[C@]1(COC(=O)N2CCC(Oc3ccc(C(F)(F)F)cc3)CC2)Cn2cc([N+](=O)[O-])nc2O1", "melting point": "165 to 166"}
{"smiles": "Cc1sc(-c2ccc(-c3ccccc3)cc2)nc1CCOc1ccc(OC(C)(C)C(=O)O)cc1", "melting point": 174}
{"smiles": "C=C(C(=O)O)c1ccc(Cl)cc1", "melting point": 110}
{"smiles": "CCCCCCCCCCCCCCOc1ccc(CN)cc1", "melting point": "62 to 64"}
{"smiles": "COc1ccc(C(N)=Nc2ccc(C(=O)O)cc2)cc1C(C)(C)C", "melting point": "170 to 172"}
{"smiles": "COc1cc2c(cc1OC)-c1cc(OC)c(OC)c3c1C(C2)CN(C)C3", "note": "(stereo unspecified)", "melting point": "170 to 177"}
{"smiles": "CCN(CC)CCOc1ccc(Nc2nccc(-c3ccncc3)n2)cc1", "melting point": "85 to 87"}
{"smiles": "COc1cccc(C2CC(=O)N(c3ccnc(NC(=O)NCc4ccccn4)c3)C2)c1", "note": "(stereo unspecified)", "melting point": "189 to 190"}
{"smiles": "CCCCc1nc(Cl)c(C(=O)O)n1Cc1ccc2oc(-c3ccccc3C(=O)OCC)c(Br)c2c1", "melting point": "148 to 150"}
{"smiles": "Nc1ccc(OCCCCCCCCCCOc2ccc(N)cc2)cc1", "melting point": "70 to 71"}
{"smiles": "COC(=O)C(NC(C)=O)C(=O)OCCBr", "note": "(stereo unspecified)", "melting point": "84 to 85"}
{"smiles": "CC(C)(C)OC(=O)NNC(=O)N1CCC(Br)C1=O", "note": "(stereo unspecified)", "melting point": "122 to 123"}
{"smiles": "COc1cc(O)ccc1C=CC(=O)CC(C)=O", "melting point": "139 to 142"}
{"smiles": "O=c1[nH]c2ccc(Cl)cc2n1C1CCNCC1", "melting point": "> 300"}
{"smiles": "Cc1cc(O)c(C23CC4CC(CC(C4)C2)C3)cc1-c1cccc(C=C2SC(N3CCOCC3)=NC2=O)c1", "melting point": "327 to 329"}
{"smiles": "CC(=O)C(C#N)c1ccc(F)c(F)c1", "note": "(stereo unspecified)", "melting point": "147 to 152"}
{"smiles": "Nc1nc2c(c(=O)[nH]1)CCc1ccccc1-2", "melting point": "> 300"}
{"smiles": "C=C(c1ccc(C(=O)N(C)OC)cc1)C(O)(Cn1cncn1)c1ccc(F)cc1F", "note": "(stereo unspecified)", "melting point": "154 to 156"}
{"smiles": "CCCCC(CC)CN1C(=O)C(=Cc2cc3sc(-c4ccc(N(c5ccccc5)c5ccccc5)cc4)cc3s2)C(C)=C(C#N)C1=O", "note": "(stereo unspecified)", "melting point": "208 to 213"}
{"smiles": "COC(=O)c1cc(-c2ccccc2)c(=O)n2c1-c1sccc1S(=O)C2", "note": "(stereo unspecified)", "melting point": "183 to 186"}
{"smiles": "NCCCCNC(=O)C(=O)NCCCCN", "melting point": "106 to 108"}
{"smiles": "COc1cccc(OC)c1C(=O)NCCSCc1cccc(Cl)c1", "melting point": "90 to 91"}
{"smiles": "CCOC(=O)C(=CNc1nnc(-c2cccnc2)s1)C(=O)OCC", "melting point": "144 to 145"}
{"smiles": "CC(C)(C)C(=O)CC(Sc1ccccc1)c1ccc(Cl)cc1Cl", "note": "(stereo unspecified)", "melting point": "79 to 80"}
{"smiles": "COc1ccc(CNC(=O)c2cc([N+](=O)[O-])ccc2N)cc1", "melting point": "189 to 191"}
{"smiles": "O=c1c2c([nH]n1-c1ccccc1)CCCC2", "melting point": "178 to 181"}
{"smiles": "CCCN1CCC(n2nc(-c3c(-c4ccccc4)nn4ccccc34)ccc2=O)CC1", "melting point": "104 to 106"}
{"smiles": "C[C@H](O)CN1CCN(c2ccc(Nc3ncc4ccc(-c5ccccc5N(C)S(C)(=O)=O)n4n3)cc2F)CC1", "melting point": 165}
{"smiles": "COC(=O)c1cc(Nc2ccccc2)c(Nc2ccccc2)cc1C(=O)OC", "melting point": 178}
{"smiles": "COc1cccc(C(=O)Nc2ccccc2C(c2ccc(O)cc2)c2ccc(O)cc2)c1", "melting point": "165 to 168"}
{"smiles": "CC(=O)OC1C=C(C)C(=O)CC(C)(C)C1OC(=O)C=Cc1ccccc1", "note": "(stereo unspecified)", "melting point": "64 to 65"}
{"smiles": "CC[C@H](C)[C@H](OCc1ccccc1)[C@H]1[C@H]([N+](=O)[O-])[C@@H]([C@@H](OCc2ccccc2)C(C)C)N[C@@H]1C(=O)NCC(=O)O", "melting point": "153 to 155"}
{"smiles": "NC(=O)c1c(Cl)c(-c2ccccc2)n2c1CN(C(=O)Nc1cccc(C(=O)O)c1)CC2", "melting point": "263 to 265"}
{"smiles": "CCCCn1c(=O)c2c(ncn2S(=O)(=O)CC23CCC(CC2=O)C3(C)C)n(CCCC)c1=O", "note": "(stereo unspecified)", "melting point": "55 to 56"}
